Several values for one entry are separate records, joined by “and”; a condition that tells them apart may be missing. Equal values may be shown once.
Legend:
rat NaP2b (SLC34A2) = target: T1, rat NaP2b (SLC34A2) (Rattus norvegicus, UniProt Q9JJ09); assay: Inhibition of NaP2b-mediated Pi (33P) uptake in transfected HEK293 cells, rat NaP2b; type: cell-based; details: 33P Pi uptake, 0.1 mM phosphate, value given as pIC50 range
T1 construct: host or cells: HEK293
T1 sequence (Q9JJ09 1-695): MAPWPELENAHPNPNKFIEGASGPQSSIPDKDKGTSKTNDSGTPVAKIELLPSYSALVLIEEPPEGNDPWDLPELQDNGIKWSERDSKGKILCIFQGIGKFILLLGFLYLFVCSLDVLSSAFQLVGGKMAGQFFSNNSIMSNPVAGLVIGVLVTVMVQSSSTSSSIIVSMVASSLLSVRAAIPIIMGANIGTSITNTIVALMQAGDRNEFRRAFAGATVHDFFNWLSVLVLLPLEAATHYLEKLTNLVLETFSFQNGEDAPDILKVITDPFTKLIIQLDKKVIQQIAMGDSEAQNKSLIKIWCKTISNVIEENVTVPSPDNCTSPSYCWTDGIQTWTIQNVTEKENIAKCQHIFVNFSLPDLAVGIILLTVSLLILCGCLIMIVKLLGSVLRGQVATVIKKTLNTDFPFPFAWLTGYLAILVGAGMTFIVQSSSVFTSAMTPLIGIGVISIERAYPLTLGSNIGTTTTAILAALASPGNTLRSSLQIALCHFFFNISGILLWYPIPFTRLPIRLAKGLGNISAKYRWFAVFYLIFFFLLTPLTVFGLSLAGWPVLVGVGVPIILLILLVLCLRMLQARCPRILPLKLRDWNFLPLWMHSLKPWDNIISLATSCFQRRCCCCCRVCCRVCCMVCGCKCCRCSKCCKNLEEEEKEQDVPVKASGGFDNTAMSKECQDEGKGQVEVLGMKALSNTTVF
Outline: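 HEK293 cells were transiently transfected with NaP2b cDNA using Lipofectamine and grown near confluence. Compounds were tested at twelve concentrations from 0.1 nM to 30 uM in duplicate, and 33P-phosphate uptake was counted by scintillation after lysis. Results are expressed as pIC50.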

[1] = Determination of compound Cmax and AUC after oral gavage (plasma LC-MS/MS); type: in vivo, Sprague-Dawley rats; details: Sprague-Dawley, rat, plasma, po, Structure (I) examples
Outline: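 Sprague-Dawley rats dosed by oral gavage at nominal 2.5 or 10 mg/kg; blood drawn at 0.5, 1, 2 and 4 h into K2EDTA. Plasma protein-precipitated with acetonitrile plus internal standard and analysed by LC-MS/MS against a plasma standard curve to derive Cmax and AUC.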

[2] = Table 15, actual oral dose 3-15 mg/kg, plasma 0.5-4 h
[3] = Table 15, actual oral dose 15-40 mg/kg, plasma 0.5-4 h

SMILES	IC50 (rat NaP2b (SLC34A2))	AUC [1, 2] [ng·h/mL]	Cmax [1, 2] [ng/mL]	AUC [1, 3] [ng·h/mL]	Cmax ([1]; Table 15, plasma 0.5-4 h) [ng/mL]
O=C(O)c1cccc(SCc2cccc(C(=O)Nc3ccc(N4CCCCC4)cc3-c3cc(C(=O)NCc4cccc(C(F)(F)F)c4)ccn3)c2)c1 [Example 8.1, 3-(3-(4-(piperidin-1-yl)-2-(4-(3-(trifluoromethyl)benzylcarbamoyl)pyridin-2-yl)phenylcarbamoyl)benzylthio)benzoic acid]	10000 to 31600 nM and < 1000 nM	< 30	< 10		
O=C(NCc1cccc(C(F)(F)F)c1)c1ccnc(-c2cc(N3CCCCC3)ccc2NC(=O)c2cccc(CSc3ccc(C(=O)O)c(Br)c3)c2)c1 [Example 8.21]	1000 to 7940 nM	< 30	< 30		
CN(CCN1CCOCC1)C(=O)c1cccc(C(=O)Nc2ccc(N3CCCCC3)cc2-c2cc(C(=O)NCc3cccc(C(F)(F)F)c3)ccn2)c1 [Example 80, N1-Methyl-N1-(2-morpholinoethyl)-N3-(4-(piperidin-1-yl)-2-(4-((3-(trifluoromethyl)benzyl)carbamoyl)pyridin-2-yl)phenyl)isophthalamide]	1000 to 7940 nM		< 10		
CN(CCOCCOCCOCCC(=O)O)C(=O)Cc1cccc(SCc2cccc(C(=O)Nc3ccc(N4CCCCC4)cc3-c3cc(C(=O)NCc4cccc(C(F)(F)F)c4)ccn3)c2)c1 [Example 138]	1000 to 7940 nM	< 10	< 10		
O=C(O)CCOCCOCCOCCOCCSCc1cccc(C(=O)Nc2ccc(N3CCCCC3)cc2-c2cc(C(=O)N[C@H]3CCCc4ccccc43)ccn2)c1 [Example 142, 1-(3-{[4-(piperidin-1-yl)-2-(4-{[(1S)-1,2,3,4-tetrahydronaphthalen-1-yl]carbamoyl}pyridin-2-yl)phenyl]carbamoyl}phenyl)-5,8,11,14-tetraoxa-2-thiaheptadecan-17-oic acid]	< 1000 nM	< 10	< 10		
CCN(CC)c1ccc(NC(=O)c2cccc(CSc3cccc(CC(=O)N(C)CCOCCOCCOCCC(=O)O)c3)c2)c(-c2cc(C(=O)NCc3cccc(C(F)(F)F)c3)ccn2)c1 [Example 144, 3-(2-(2-(2-(2-(3-(3-(4-(diethylamino)-2-(4-(3-(trifluoromethyl)benzylcarbamoyl)pyridin-2-yl)phenylcarbamoyl)benzylthio)phenyl)-N-methylacetamido)ethoxy)ethoxy)ethoxy)propanoic acid]	< 1000 nM	< 10	< 10		
CCN(CC)c1ccc(NC(=O)c2cccc(CSCCOCCOCCOCCOCCOCCOCCOCCOCCC(=O)O)c2)c(-c2cc(C(=O)N[C@H]3CCCc4ccccc43)ccn2)c1 [Example 161, (S)-1-(3-(4-(diethylamino)-2-(4-(1,2,3,4-tetrahydronaphthalen-1-ylcarbamoyl)pyridin-2-yl)phenylcarbamoyl)phenyl)-5,8,11,14,17,20,23,26-octaoxa-2-thianonacosan-29-oic acid]	1000 to 7940 nM	< 10	< 10		
CCN(CC)c1ccc(NC(=O)c2cccc(CSCCOCCOCCOCCOCCC(=O)O)c2)c(-c2cc(C(=O)NCc3cccc(C(F)(F)F)c3)ccn2)c1 [Example 162, 1-(3-(4-(diethylamino)-2-(4-(3-(trifluoromethyl)benzylcarbamoyl)pyridin-2-yl)phenylcarbamoyl)phenyl)-5,8,11,14-tetraoxa-2-thiaheptadecan-17-oic acid]	< 1000 nM	< 10	< 10		
CCN(CC)c1ccc(NC(=O)c2cccc(CSCCOCCOCCOCCOCCOCCOCCOCCOCCC(=O)O)c2)c(-c2cc(C(=O)NCc3cccc(C(F)(F)F)c3)ccn2)c1 [Example 166, 1-(3-(4-(diethylamino)-2-(4-(3-(trifluoromethyl)benzylcarbamoyl)pyridin-2-yl)phenylcarbamoyl)phenyl)-5,8,11,14,17,20,23,26-octaoxa-2-thianonacosan-29-oic acid]	1000 to 7940 nM	< 10	< 10	< 50	> 50
O=C(O)CCOCCOCCOCCNC(=O)c1cccc2c1ccn2Cc1cccc(C(=O)Nc2ccc(N3CCCCC3)cc2-c2cc(C(=O)N[C@H]3CCCc4ccccc43)ccn2)c1 [Example 181, (S)-1-oxo-1-(1-(3-(4-(piperidin-1-yl)-2-(4-(1,2,3,4-tetrahydronaphthalen-1-ylcarbamoyl)pyridin-2-yl)phenylcarbamoyl)benzyl)-1H-indol-4-yl)-5,8,11-trioxa-2-azatetradecan-14-oic acid]	< 1000 nM	< 30	< 30		
CCN(CC)c1ccc(NC(=O)c2cccc(C(=O)N(C)CCOCCOCCOCCC(=O)O)c2)c(-c2cc(C(=O)NCc3cccc(C(F)(F)F)c3)ccn2)c1 [Example 188, 1-(3-((4-(diethylamino)-2-(4-((3-(trifluoromethyl)benzyl)carbamoyl)pyridin-2-yl)phenyl)carbamoyl)phenyl)-2-methyl-1-oxo-5,8,11-trioxa-2-azatetradecan-14-oic acid]	1000 to 7940 nM	< 10	< 10		
CCCN(CCC)c1ccc(NC(=O)c2cccc(COCCOCCOCCOCCOCCOCCOCCOCCOC)c2)c(-c2cc(C(=O)NCc3cccc(C(F)(F)F)c3)ccn2)c1 [Example 200, 2-(2-(3-(2,5,8,11,14,17,20,23,26-nonaoxaheptacosyl)benzamido)-5-(dipropylamino)phenyl)-N-(3-(trifluoromethyl)benzyl)isonicotinamide]	1000 to 7940 nM	< 30	< 30		
CCN(CC)c1ccc(NC(=O)c2cccc(CCCOCCOCCOCCOCCC(=O)O)c2)c(-c2cc(C(=O)NCc3cccc(C(F)(F)F)c3)ccn2)c1 [Example 251, 16-(3-(4-(diethylamino)-2-(4-(3-(trifluoromethyl)benzylcarbamoyl)pyridin-2-yl)phenylcarbamoyl)phenyl)-4,7,10,13-tetraoxahexadecan-1-oic acid]	1000 to 7940 nM	< 10	< 10		
O=C(O)CCOCCOCCOCCOCCCc1cccc(C(=O)Nc2ccc(N3CCCCC3)cc2-c2cc(C(=O)N[C@H]3CCCc4ccccc43)ccn2)c1 [Example 252, 3-(2-(2-(2-(3-(3-((2-(4-(((S)-1,2,3,4-tetrahydronaphthalen-1-yl)carbamoyl)pyridin-2-yl)-4-(piperidin-1-yl)phenyl)carbamoyl)phenyl)propoxy)ethoxy)ethoxy)ethoxy)propanoic acid]	< 1000 nM	< 30	< 30		
CCN(CC)c1ccc(NC(=O)c2cccc(CCCOCCOCCOCCOCCOCCOCCOCCOCCOC)c2)c(-c2cc(C(=O)N[C@H]3CCCc4ccccc43)ccn2)c1 [Example 261, (S)-2-(2-(3-(2,5,8,11,14,17,20,23,26-nonaoxanonacosan-29-yl)benzamido)-5-(diethylamino)phenyl)-N-(1,2,3,4-tetrahydronaphthalen-1-yl)isonicotinamide]	< 1000 nM	> 50	< 50		
CCN(CC)c1ccc(NC(=O)c2cccc(CSCCOCCOCCOCCOCCOCCOCCOCCOC)c2)c(-c2cc(C(=O)NCc3cccc(C(F)(F)F)c3)ccn2)c1 [Example 265, 2-(2-(3-(2,5,8,11,14,17,20,23-octaoxa-26-thiaheptacosan-27-yl)benzamido)-5-(diethylamino)phenyl)-N-(3-(trifluoromethyl)benzyl)isonicotinamide]	< 1000 nM	< 30	< 30		
CCN(CC)c1ccc(NC(=O)c2cccc(CCCOCCOCCOCCOCCOCCOCCOCCOCCOC)c2)c(-c2cc(C(=O)NCc3cccc(C(F)(F)F)c3)ccn2)c1 [Example 269, 2-(2-(3-(2,5,8,11,14,17,20,23,26-nonaoxanonacosan-29-yl)benzamido)-5-(diethylamino)phenyl)-N-(3-(trifluoromethyl)benzyl)isonicotinamide]	1000 to 7940 nM	< 10	< 10		
CCN(CC)c1ccc(NC(=O)c2cccc(CCCOCCOCCOCCOCCNS(=O)(=O)c3ccc(C(=O)N(CCOC)CCOCCOCCOCCOCCOCCOCCOC)cc3)c2)c(-c2cc(C(=O)NCc3cccc(C(F)(F)F)c3)ccn2)c1 [Example 272, 2-(2-(3-(1-(4-(2,5,8,11,14,17,20-heptaoxadocosan-22-yl(2-methoxyethyl)carbamoyl)phenylsulfonamido)-3,6,9,12-tetraoxapentadecan-15-yl)benzamido)-5-(diethylamino)phenyl)-N-(3-(trifluoromethyl)benzyl)isonicotinamide]	1000 to 7940 nM			< 10	< 10

From US20140023611A1 (priority 2010, published 2014)
